# Legend:
# eosinophils = experiment: Counting of immune cells in bronchioalveolar lavage (BAL) fluid, asthma model; assay type: in vivo, C57BL/6 (B6) male mice; details: oral 400 μg/g and 800 μg/g
# Description: (§1) 5 μL of allergen, AP (aspergillus protease, 1 mg/mL, Sigma-Aldrich, St. Louis, Mo.) was mixed with 45 μL of OVA (chicken egg ovalbumin, 0.5 mg/mL, Sigma-Aldrich). After 3 intraperitoneal injections with 4-day intervals, asthma was induced by 2 intranasal challenges with 4-day interval. The intranasal challenge was performed under isoflurane inhalational anesthesia. Macelignan dissolved in corn oil was orally administered every day.
# (§2) Within 24 hours after the last allergen challenge, the mouse was anesthetized by intraperitoneal injection of 0.1 mg/g sodium pentobarbital. After tracheal intubation, flexiVent (Scireq®, Montreal, Canada) was connected to maintain stable ventilation. Thereafter, striated muscle was relaxed by intravenous (IV) administration of 0.08 mg/kg pancuronium (Sigma-Aldrich). Following airway hypersensitivity test by IV administration of acetylcholine (Sigma-Aldrich), 1 mL of DPBS (Dulbecco's phosphate buffered saline) was injected twice into the intubation tube using a syringe for bronchioalveolar lavage. Thereafter, the chest was opened and the lungs were subjected to ELISpot assay. […]
# When asthma is induced, various inflammatory cells increase in the airway. […] After performing BAL once again and collecting the BAL fluid, its volume was measured. […]
# [1] = Skin barrier recovery test (TEWL, skin hydration, erythema index), atopic dermatitis model; assay type: in vivo, NC/Nga mice
# Description: 8-week-old NC/Nga mice (20-25 g) were purchased from Chungang Lab. Animal. After adapting for 1 week, the NC/Nga mouse was anesthetized with 90% ethyl ether (Ducsan, Korea) and hair was removed from the occipital region and the back of the mouse using depilatory cream (Reckitt Benckiser, France). After allowing micro wound healing for a day, 100 mg of mite antigen cream (Biostir, Inc. Japan) comprising Dermatophagoides farina, which causes atopic dermatitis, as a main ingredient was evenly applied on the ear, occipital region and back, 3 times a week (for 5 weeks, from week 9 to week 13). 2 hours before application of the mite antigen cream, 4% SDS solution was applied at the same area to increase transdermal absorption of the mite antigen cream by inducing the breakdown of skin fats and cuticle layer. From week 3 following the application, IgE value was measured to quantitate the degree of atopic dermatitis. Also during the drug treatment period (week 12 to week 13), 100 mg of the mite antigen cream was applied 3 times a week to prevent spontaneous healing of the atopic dermatitis.
# In order to induce atopic dermatitis, 100 mg of mite antigen cream was applied on the ear, occipital region and back of NC/Nga mouse (9 to 11 weeks old), except for the negative control group, 3 times a week, 2 hours after the application of 4% SDS solution. Three weeks later, it was observed whether atopic dermatitis was induced by checking skin rash, erythema, cornification, or the like. Atopic dermatitis was induced in all groups except for the negative control group. For drug treatment and evaluation of therapeutic effect, mice were grouped into 12 groups, 6 oral administration groups and 6 topical application groups (each consisting of negative control group, positive control group, macelignan low conc. group, macelignan high conc. group, nutmeg extract low conc. group, and nutmeg extract high conc. group), with n=5 per cage. During the following drug treatment and evaluation period of 2 weeks (12 to 13 weeks old), the negative control groups, which had not been treated with 4% SDS solution and mite antigen cream, were treated with physiological saline (oral administration group) or base cream (topical application group) every day, and the positive control groups, which had been treated with 100 mg of mite antigen cream 2 hours after application of 4% SDS solution, 3 times every week, were treated with physiological saline (oral administration group) or base cream (topical application group). The oral administration groups were treated with 100 mg of mite antigen cream 2 hours after application of 4% SDS solution, 3 times every week, and were treated with macelignan or nutmeg extract at low concentration (50 mg/kg/day) or high concentration (150 mg/kg/day) every day. The topical application groups were treated with 100 mg of mite antigen cream 2 hours after application of 4% SDS solution, 3 times every week, and were treated with macelignan cream or nutmeg extract cream at low concentration (20 mg/kg/day) or high concentration (60 mg/kg/day) every day. Transepidermal water loss (TEWL), skin hydration and erythema index were measured one day before the end of the test. Serum was obtained by retro-orbital blood sampling. After the end of the test (14 weeks old) spleen and skin tissues from occipital region and back were sampled and stored at −70° C. ALN (axillary lymph node) was stored in DMEM containing 2% FBS (fetal bovine serum). The skin tissues were stored in 10% formalin solution.
# One day before the end of the experiment, TEWL, skin hydration and erythema index were measured to quantitatively compare recovery of skin barrier. TEWL was measured with a tewameter (TM300), skin hydration with a corneometer (CM825), and erythema index with a mexameter (MX18).
# IL-4 secreting cells = experiment: Counting of IL-4 secreting cells in the lungs (ELISpot), asthma model; assay type: in vivo, C57BL/6 (B6) male mice; details: oral 400 μg/g and 800 μg/g; vs vehicle (corn oil) group
# Description: as §1, §2
# When asthma is induced in a mouse, Th2 cells in the lungs increase. […] After addition of substrate dissolved in 0.6% low melting agarose followed by incubation at 4° C., spots were counted within 24 hours to count the number of IL-4 secreting cells in the lungs.
# [2] = oral administration 50 mg/kg/day
# [3] = oral administration 150 mg/kg/day
# [4] = oral administration 50 and 150 mg/kg, p<0.01
# [5] = topical application 20 mg/kg/day
# [6] = topical application 60 mg/kg/day
# [7] = topical application 20 and 60 mg/kg, p<0.01
smiles,measurement,setting,value
"COc1cc(C[C@H](C)[C@H](C)Cc2ccc3c(c2)OCO3)ccc1O (single isomer, unassigned) [macelignan]",other immune cells in the BAL fluid,eosinophils,Decrease of other immune cells was not observed
same,eosinophils in the BAL fluid,eosinophils; vs vehicle (corn oil) group,decreased eosinophils
same,Erythema Index,[1]; [2],198.5 ± 46.8
same,Skin Hydration,[1]; [2],5.0 ± 0.8 AU
same,TEWL,[1]; [2],17.6 ± 8.1 g/hr · m^2
same,Erythema Index,[1]; [3],190 ± 24.4
same,Skin Hydration,[1]; [3],6.4 ± 2.8 AU
same,TEWL,[1]; [3],21.5 ± 9.2 g/hr · m^2
same,skin hydration compared to the positive control group,[1]; oral administration 50 and 150 mg/kg,effect of increasing skin hydration
same,TEWL compared to the positive control group,[1]; [4],statistically significant effect of suppressing TEWL
same,erythema index compared to the positive control group,[1]; [4],statistically significant effect of decreasing erythema index
same,Erythema Index,[1]; [5],163.3 ± 4.0
same,Skin Hydration,[1]; [5],12.4 ± 3.9 AU
same,TEWL,[1]; [5],25.8 ± 3.1 g/hr · m^2
same,Erythema Index,[1]; [6],190 ± 24
same,Skin Hydration,[1]; [6],13.4 ± 4.7 AU
same,TEWL,[1]; [6],26.2 ± 4.9 g/hr · m^2
same,TEWL compared to the positive control group,[1]; [7],statistically significant effect of suppressing TEWL
same,erythema index compared to the positive control group,[1]; [7],statistically significant effect of decreasing erythema index
same,skin hydration compared to the positive control group,[1]; [7],statistically significant effect of increasing skin hydration
same,IL-4 secreting cells in the lungs,IL-4 secreting cells,decreased IL-4 secreting cells

# Reference: US8853264B2, “Use of lignan compounds for treating or preventing inflammatory disease” (Newtree Industry Co., Ltd., priority 2005, dated 2014)
